Results taken from EP0603240B1, “SAFENING HERBICIDAL PYRAZOLYLSULFONYLUREAS” (priority 1991, dated 1993).

What was measured:
Type in all cases: in vivo
[1] = system: velvetleaf (Abutilon theophrasti); assay: Example 11, Procedure II: Herbicide No. 1 + metazachlor (No. 14) with antidotes
Method: (§1) Containers were filled and compacted with a fumigated silt loam top soil to a depth of about 1.3 cm from the top of the container. A first container was designated as an untreated control, a second container was designated as a herbicide control, and a third container was designated as a herbicide + antidote test container. Each of the containers was seeded with a crop species. A measured amount of herbicide dispersed or dissolved in acetone was applied to a measured quantity of soil. To this same quantity of soil treated with herbicide, there was added a measured amount of antidote dispersed or dissolved in acetone. The quantity of soil treated with the herbicide and antidote was thoroughly mixed to incorporate the herbicide and antidote in the soil uniformly. The seed bed in the third container of soil was covered with the soil treated with the herbicide and antidote and the container was leveled. For each test series, the seed beds of the first and second containers were likewise covered by soil layers. the cover layer of the first container was not treated with herbicide or antidote.
(§2) The containers were then placed on a bench in a greenhouse and sub-irrigated as required for the duration of the test. […] Plant response is measured in terms of percent injury. Antidote efficacy is indicated as the difference in plant injury by the herbicide(s) without the antidote and with the antidote.
(§3) This procedure is the same as Procedure I, but modified in the manner that after incorporation of the chemicals (herbicide and antidote) the containers with the covered seedbed were treated with an initial overhead irrigation equivalent to 0.6 cm rainfall, then subsequently sub-irrigated as required on greenhouse benches.
(§4) In the series of greenhouse tests described below, for routine screening purposes the herbicide/antidote compositions were tested in crop/weed combinations involving corn as the crop and either or both of the weeds barnyardgrass (Echinochloa crusgalli), a monocotyledonous weed, and velvetleaf (Abutilon theophrasti), a dicotyledonous weed. In the tables below, these weeds are indicated by the symbols "BYG" and "VL", respectively.
(§5) In this example, yet another α-chloroacetanilide co-herbicide, metazachlor (Herbicide No. 14) was combined with Herbicide No. 1 for investigation of the effect of various safeners on that composition. Metazachlor is the active ingredient in the commercial herbicide BUTISAN® S, used here as a 500 g/L formulation.

[2] = system: barnyardgrass (Echinochloa crusgalli); assay: as above
Method: as §1, §2, §3, §4, §5

corn = assay: Example 8, Procedure II: Herbicide No. 1 + butachlor (No. 9) with antidotes
Method: as §1, §2, §3
In this test, the efficacy of the same five antidotes used in Examples 6 and 7 was investigated in compositions comprising Herbicide No. 1 and as a co-herbicide, butachlor (Herbicide No. 9), active ingredient in MACHETE® herbicide, a leading commercial rice herbicide. The test procedure used in this example was the same as that in Examples 6 and 7.

[3] = system: velvetleaf (Abutilon theophrasti); assay: Example 10, Procedure II: Herbicide No. 1 + propachlor (No. 5) with antidotes
Method: as §1, §2, §3, §4
(§6) In this test, the safening effect of various antidotes on the herbicidal combination of Herbicide No. 1 and another α-chloroacetanilide co-herbicide, propachlor, (Herbicide No. 5) was investigated. Propachlor is the active ingredient in the commercial herbicide RAMROD®. Procedure II was also used in this test as in the preceding example.

[4] = system: barnyardgrass (Echinochloa crusgalli); assay: as above
Method: as §1, §2, §3, §4, §6

[5] = Herbicide No.1 0.56 kg/ha + Herbicide No.14 3.36 kg/ha, antidote rate 2.24 kg/ha
[6] = Herbicide No.1 0.56 kg/ha + Herbicide No.14 3.36 kg/ha, antidote rate 8.96 kg/ha
[7] = Herbicide No.1 1.12 kg/ha + Herbicide No.14 3.36 kg/ha, antidote rate 2.24 kg/ha
[8] = Herbicide No.1 1.12 kg/ha + Herbicide No.14 3.36 kg/ha, antidote rate 8.96 kg/ha
[9] = Herbicide No.1 0.14 + No.9 2.24 kg/ha + antidote 2.24 kg/ha
[10] = Herbicide No.1 0.14 + No.9 2.24 kg/ha + antidote 8.96 kg/ha
[11] = Herbicide No.1 0.56 + No.9 2.24 kg/ha + antidote 2.24 kg/ha
[12] = Herbicide No.1 0.56 + No.9 2.24 kg/ha + antidote 8.96 kg/ha
[13] = Herbicide No.1 0.14 kg/ha + Herbicide No.5 4.48 kg/ha, antidote rate 2.24 kg/ha
[14] = Herbicide No.1 0.14 kg/ha + Herbicide No.5 4.48 kg/ha, antidote rate 8.96 kg/ha
[15] = Herbicide No.1 0.56 kg/ha + Herbicide No.5 4.48 kg/ha, antidote rate 2.24 kg/ha
[16] = Herbicide No.1 0.56 kg/ha + Herbicide No.5 4.48 kg/ha, antidote rate 8.96 kg/ha

SMILES	% Injury VL [1, 5] [%]	% Injury VL [1, 6] [%]	% Injury VL [1, 7] [%]	% Injury VL [1, 8] [%]	% Injury BYG [2, 5] [%]	% Injury BYG [2, 6] [%]	% Injury BYG [2, 7] [%]	% Injury BYG [2, 8] [%]	% Injury Corn (corn; [9]) [%]	% Injury Corn (corn; [10]) [%]	% Injury Corn (corn; [11]) [%]	% Injury Corn (corn; [12]) [%]	% Injury VL [3, 13] [%]	% Injury VL [3, 14] [%]	% Injury VL [3, 15] [%]	% Injury VL [3, 16] [%]	% Injury BYG [4, 13] [%]	% Injury BYG [4, 14] [%]	% Injury BYG [4, 15] [%]	% Injury BYG [4, 16] [%]
C=CCN(CC=C)C(=O)C(Cl)Cl [compound 1]	80	90	85	80	99	100	99	100	20	10	20	15	75	70	70	80	99	99	98	99
CC1(C(Cl)Cl)OCCO1 [compound 13]	85	85	90	95	100	100	100	100	25	10	45	30	70	70	80	75	98	97	99	98
O=C(C(Cl)Cl)N1CCOC12CCCCC2 [compound 7]	80	85	90	90	99	100	99	99	5	10	25	20	70	75	95	80	99	98	98	96
